Test results reported in patent US8202998B2, “Salts of benzimidazolyl pyridyl ethers and formulations thereof” (Novartis AG, priority 2006, dated 2012).
≈ marks a conversion by molar mass, not a printed value.

Experiments:
[1] = Aqueous solubility of API as a function of pH (shake flask method); assay type: physicochemical; settings: for solubility at 5 days: aqueous HCl or NaOH solution, ionic strength 0.15 (KCl), thermodynamic from solid, room temperature
Procedure: The aqueous solubility of the compound of Formula I was assessed as a function of pH. Solubility of the compound of Formula I was determined using the shake flask method. The following aqueous solutions of hydrochloric acid (HCl) were prepared: 100, 33.3, 11.1, 3.7, 1.2, 0.4, and 0 mM. The following aqueous solutions of sodium hydroxide (NaOH) were prepared: 1.2 and 0.4 mM. The ionic strength of each of these solutions was adjusted to 0.15 using potassium chloride. Excess amounts of the compound of Formula I were added to a 1 mL aliquot of each of the above solutions in 1.5-mL polypropylene tubes. The tubes were agitated at room temperature for 5 days before analysis. On the day of analysis, the tubes were centrifuged at 15,000 revolutions per minute (rpm) using a microcentrifuge at 22° C. for 20 minutes. The concentration of compound of Formula I in the supernatant was measured by HPLC. The pH of the supernatant was measured using an Orion pH meter, which was calibrated before use.

[2] = Stability: degradation products (DP) and appearance (color) under stress conditions; assay type: physicochemical; set-up: key to CL: A: No change of color; B: Slight discoloration; C: Medium discoloration; D: Strong discoloration; ↓: Suspension; *: Clear solution after stress test; —: no change; x: test not performed
Procedure: Column: Symmetry C18 (Waters), 3.5 μm, 3×150 mm
Mobile phase: A=0.1% TFA in water; B=acetonitrile
Gradient: 20 to 100% B in 10 minutes
Column temperature: 40° C.
Stability of the three salts with respect to color and degradation products were assessed under various conditions.

[3] = Determination of solubility at 25° C.; assay type: physicochemical; settings: for solubility: thermodynamic from solid
Procedure: Excess solids were equilibrated in each solvent for over 24 hours at 25° C.±0.1. Concentration in aqueous supernatant was measured by UV and HPLC and concentrations in organic solvents by gravimetry.

[4] = Intrinsic dissolution rate; assay type: physicochemical; settings: 37° C.
Procedure: The intrinsic dissolution rate measurements were carried out in 0.5 cm^2 VanKel die assemblies and a pellet pressure of 1 ton. The dissolution was measured using a Cary 50 spectrophotometer with a stirring rate of 200 rpm. The solution medium was held at 37° C. and measurements were made at 276 nm.

[5] = Hygroscopicity (sorption/desorption); assay type: physicochemical
Procedure: Sorption/desorption isotherms were measured using VTI vapor sorption device (DVS-1). Measurements were carried out at 25° C.

[6] = Polymorphism behavior: crystal modification after 24 hours equilibration; assay type: physicochemical
Procedure: A suspension of 6 mg of drug substance in 300 μl of solvent is prepared. Samples are agitated for ≧24 hour at 22° C.±2° C. The solids are collected and investigated for changes.

[7] = Bioavailability study of API and salts of API in dogs; assay type: in vivo, beagle dogs; settings: single 100 mg oral dose
Procedure: For comparison, a microemulsion of the free base was also studied. The study was performed with 4 dogs, weighing 9-15 kg each. A crossover design with a washout period of at least 1 week was used. The dogs were given a single oral dose of 100 mg of test compound, administered under fasting conditions.

[8] = pH of 1% solution or suspension; assay type: physicochemical; settings: In water
[9] = Thermogravimetry / loss on drying; assay type: physicochemical
[10] = Apparent pKa by pH profile solubility study; assay type: physicochemical; settings: determined by a pH profile solubility study
Source text: The apparent pKa of the compound of Formula I refers to the apparent ionization constant of the compound of Formula I as determined by a pH profile solubility study. Thus, the apparent pKa of the compound of Formula I is a complex term consisting of three overlapping ionization constants of the basic nitrogens in Formula I.

[11] = Effect of grinding on morphic properties; assay type: physicochemical
[12] = Aqueous solubility of salts in deionized water
[13] = 0.1% solutions or suspensions, 1 week 80° C. or 50° C., Methanol
[14] = 0.1% solutions or suspensions, 1 week 80° C. or 50° C., Water
[15] = 0.1% solutions or suspensions, 1 week 80° C. or 50° C., pH 1
[16] = 0.1% solutions or suspensions, 1 week 80° C. or 50° C., pH 3
[17] = 0.1% solutions or suspensions, 1 week 80° C. or 50° C., pH 5
[18] = 0.1% solutions or suspensions, 1 week 80° C. or 50° C., pH 7
[19] = 0.1% solutions or suspensions, 1 week 80° C. or 50° C., pH 9
[20] = 0.1% solutions or suspensions, 1 week 80° C. or 50° C., pH 11
[21] = 1-2 weeks 50° C., tight container, 1% in mixture 1
[22] = 1-2 weeks 50° C., tight container, 1% in mixture 2
[23] = 1-2 weeks 50° C./75% r.h., 1% in mixture 1
[24] = 1-2 weeks 50° C./75% r.h., 1% in mixture 2
[25] = Solid stage, 1 week 80° C., tight container, Bulk (HPLC)
[26] = Xenon light (approx. 1200 kLuxh), Bulk (HPLC)
[27] = beagle, dog, plasma, fasting, mean and sd
[28] = deionized water, water, thermodynamic from solid

Cn1c(Nc2ccc(C(F)(F)F)cc2)nc2cc(Oc3ccnc(-c4ncc(C(F)(F)F)[nH]4)c3)ccc21 [API, {1-methyl-5-[2-(5-trifluoromethyl-1H-imidazol-2-yl)-pyridin-4-yloxy]-1H-benzoimidazol-2-yl}-(4-trifluoromethyl-phenyl)amine]
Aqueous solubility (in words) ([1]; Water): practically insoluble in water | solubility at 5 days ([1]; aqueous buffer, pH 2.19): 125 µg/mL (≈ 242 µM) | solubility at 5 days ([1]; aqueous buffer, pH 3.75): 1.9 µg/mL (≈ 3.66 µM) | solubility at 5 days ([1]; aqueous buffer, pH 5.78): 0.4 µg/mL (≈ 0.772 µM) | solubility at 5 days ([1]; aqueous buffer, pH 10.13): 0.3 µg/mL (≈ 0.579 µM) | solubility at 5 days ([1]; aqueous buffer, pH 11.00): 0.3 µg/mL (≈ 0.579 µM) | solubility at 5 days ([1]; simulated gastric fluid, pH 1.36): 709 µg/mL (≈ 1370 µM) | CL [2, 13]: A | DP [2, 13]: 0.6% | CL [2, 14]: A↓ | DP [2, 14]: 0.6% | CL [2, 15]: A | DP [2, 15]: 1.4% | CL [2, 16]: A↓ | DP [2, 16]: 0.9% | CL [2, 17]: A↓ | DP [2, 17]: 0.6% | CL [2, 18]: A↓ | DP [2, 18]: 0.9% | CL [2, 19]: A↓ | DP [2, 19]: 27.0% | CL [2, 20]: A↓ | DP [2, 20]: >99% | CL [2, 21]: A | DP [2, 21]: 0.7% | CL [2, 22]: A | DP [2, 22]: 0.6% | CL [2, 23]: A | DP [2, 23]: 0.8% | CL [2, 24]: A | DP [2, 24]: 0.5% | Stability in methanol (in words) ([2]; In methanol): stable | CL [2, 25]: A | DP [2, 25]: 0.6% | DP ([2]; Solid state, 1 week 80° C./175% r.h, Bulk (HPLC)): 0.6% | CL ([2]; Solid state, 1 week 80° C./, Bulk (HPLC)): A | DP ([2]; Unstressed): 0.6% | CL [2, 26]: A | DP [2, 26]: 0.6% | optimum pH for aqueous stability ([2]; aqueous): 5 | Aqueous stability at higher pH (in words) ([2]; higher pH (9 and 11)): decomposes | solubility ([3]; 0.1N HCl, 25 °C, simulated gastric fluid, read-out: Solubility (approx. at 25° C.) (HPLC)): 200 µg/mL (≈ 386 µM) | solubility ([3]; acetonitrile, 25 °C, organic solvent or mixture, read-out: Solubility (approx. at 25° C.)): 5200 µg/mL (≈ 10000 µM) | solubility ([3]; aqueous medium at pH 3, 25 °C, pH 3, aqueous buffer, read-out: Solubility (approx. at 25° C.) (HPLC)): 0.06 µg/mL (≈ 0.116 µM) | solubility ([3]; aqueous medium at pH 4.5, 25 °C, pH 4.5, aqueous buffer, read-out: Solubility (approx. at 25° C.) (HPLC)): 0.09 µg/mL (≈ 0.174 µM) | Solid ([3]; line after Water under Solubility): No change | solubility ([3]; methanol, 25 °C, organic solvent or mixture, read-out: Solubility (approx. at 25° C.)): 11400 µg/mL (≈ 22000 µM) | Aqueous solubility (in words) ([3]; summary of Table 8): nearly insoluble in water | solubility ([3]; water, 25 °C, water, read-out: Solubility (approx. at 25° C.) (HPLC)): 24 µg/mL (≈ 46.3 µM) | Intrinsic dissolution rate ([4]; HCl 0.1N): 0 mg min^−1 cm^−2 | Intrinsic dissolution rate ([4]; Water): 0 mg min^−1 cm^−2 | Hygroscopicity from moisture sorption profiles (in words) [5]: non-hygroscopic | Hygroscopicity: After 1 day at 80% r.h. ([5]; 80% r.h., 1 day, 25° C.): 0 | Hygroscopicity: After 1 day at 95% r.h. ([5]; 95% r.h., 1 day, 25° C.): 0.1 | Crystal modification after 24 hours equilibration (DSC/XRPD/TG) ([6]; 2-propanol): No change | Crystal modification after 24 hours equilibration (DSC/XRPD/TG) ([6]; Acetone): No change | Crystal modification after 24 hours equilibration (DSC/XRPD/TG) ([6]; Acetonitrile): Change | Crystal modification after 24 hours equilibration (DSC/XRPD/TG) ([6]; Ethanol): No change | Crystal modification after 24 hours equilibration (DSC/XRPD/TG) ([6]; Ethyl acetate): No change | Crystal modification after 24 hours equilibration (DSC/XRPD/TG) ([6]; Methanol): No change | Crystal modification after 24 hours equilibration (DSC/XRPD/TG) ([6]; PEG400): No change | Crystal modification after 24 hours equilibration (DSC/XRPD/TG) ([6]; Water): Change | AUC(0-inf) [7, 27]: 5310 ± 4510 ng·h/mL | Cmax [7, 27]: 62.9 ± 74.4 ng/mL | Tmax ([7]; beagle, dog, plasma, fasting, median): 16 h | Tlag ([7]; fasting, median): 1.0 h | Absolute F ([7]; relative to an iv dose of 1.25 mg/kg): 2.32 ± 1.97 | pH of 1% solution or suspension [8]: 5.5 | Loss on drying by TG ([9]; As is): 3.3% | Thermogravimetry (weight loss in %) ([9]; Heating rate 20 K/min): 3.3% | pKa [10]: ~4.7 | Effect of grinding [11]: No change | solubility [12, 28]: 9 µg/mL | solubility at 48 h [12, 28]: 4 µg/mL | pH ([12]; pH of the saturated aqueous solutions): 5.235
